The values below come from patent publication US10597620B2, “Taste modifiers comprising a chlorogenic acid” (GIVAUDAN SA, priority 2001, dated 2020).

This assay in a line: Flavorist panel evaluation of aged artificially sweetened beverage with added chlorogenic acid. The assay is classed as in vivo. As to conditions: final concentration 0.003% w/v; compared to untreated beverage; six member panel of trained flavorists. As for the experimental part:
An artificially sweetened beverage is prepared by mixing 1.4 g aspartame, 0.9 g acesulfame K, 6 ml sodium benzoate (25%^w/v in water), 1.3 ml phosphoric acid (85%^w/v), and 0.5 ml citric acid (50%^w/v in water). The volume of the mixture is adjusted to 1000 ml with water. The beverage mixture is aged for three weeks at 34° C.
A 2.8%^w/w solution of a commercially available synthetic chlorogenic acid (>95% pure (1,3,4,5-tetrahydroxy-cyclohexanecarboxylic acid 3-[3,4-dihydroxycinnamate]), Sigma Chemical Co., St. Louis, Mo.), in water, pH 5.6, is added to a portion of the aged beverage to a final concentration of 0.003%^w/v. The beverage containing chlorogenic acid is evaluated and compared to the untreated beverage by a six member panel of trained flavorists. The beverage containing the commercial chlorogenic acid is judged by the panel to display markedly less of the metallic, slightly bitter aftertaste found in the aged artificially sweetened beverage.
To another portion of the artificially sweetened beverage prepared as described in the first paragraph of Example 6, an aqueous solution of chlorogenic acid from the powdered extract of green coffee beans is added to a final concentration of 0.003%^w/v chlorogenic acid. This beverage is evaluated by the same flavorist panel as described in Example 6. […]

As for `O=C(C=Cc1ccc(O)c(O)c1)OC1CC(O)(C(=O)O)CC(O)C1O` (stereo not shown) [synthetic chlorogenic acid, 1,3,4,5-tetrahydroxy-cyclohexanecarboxylic acid 3-[3,4-dihydroxycinnamate]], the “metallic, slightly bitter aftertaste found in the aged artificially sweetened beverage” value was “markedly less”.
